Data from patent publication US20220151979A1, “COMPOSITION FOR PREVENTION OR TREATMENT OF CARDIOVASCULAR AND METABOLIC DISEASE COMPRISING NORANHYDROICARITIN” (SEOUL NATIONAL UNIVERSITY HOSPITAL, priority 2019, published 2022).

How the values were obtained:
Format in all cases: cell-based, human
[1] = system: PCSK9; test: Immunoblot of PCSK9 in HepG2 cells, noranhydroicaritin and pravastatin, pitavastatin, fluvastatin or simvastatin (Table 1); conditions: statin 5 μM singly, untreated = 1 ± 0.04
Experimental: (§1) The cells aliquoted by the method of Example 7 were treated with noranhydroicaritin or each statin (pravastatin, pitavastatin, fluvastatin, or simvastatin) singly or with noranhydroicaritin and a statin (pravastatin, pitavastatin, fluvastatin, or simvastatin) simultaneously, and the proteins were extracted. On an SDS-polyacrylamide gel, 30 μg of each protein was electrophoresed, and attached to a membrane, and then protein expression levels were confirmed using the respective antibodies: PCSK9 and LDLR.

[2] = system: PCSK9; test: Immunoblot of PCSK9 in HepG2 cells, noranhydroicaritin and statin singly or in combination; conditions: treated singly
Experimental: as §1, with “or a” for “or each”, “statin (atorvastatin” for “statin (pravastatin, pitavastatin, fluvastatin,”, “or rosuvastatin)” for “or simvastatin)”, “antibodies: phospho-AMPK, PCSK9, LDLR,” for “antibodies: PCSK9”, “and PPARγ.” for “and LDLR.”

[3] = system: SREBP 1 promoter; test: SREBP 1 promoter-reporter luciferase assay in HEK293T cells; conditions: pGL4.14-SREBP-transfected HEK293T cells, 18 hours, compared to control
Experimental: (§2) In order to confirm the SREBP gene expression inhibitory effect of noranhydroicaritin, HEK293T cells were treated with noranhydroicaritin and kaempferol, and it was confirmed whether the expression of SREBP was inhibited through a luciferase assay.
(§3) i) A primer was prepared to contain KpnI and XhoI restriction enzyme sites in the SREBP 1 and 2 promoter gene region, and then PCR (polymerase chain reaction) and electrophoresis on an agarose gel were performed to isolate SREBP promoter region DNA. A pGL4.14-[luc2/Hygro] vector containing a firefly luciferase as a reporter gene was treated with the same restriction enzymes (KpnI and XhoI), and then isolated via agarose gel electrophoresis and gel extraction. The purely isolated SREBP promoter gene region and pGL4.14-[luc2/Hygro] vector were reacted for 1 hour using In-fusion DNA ligase (Takara), and then transformed into E. coli to prepare a promoter-reporter construct in which the SREBP promoter was inserted, and this was named pGL4.14-SREBP.
(§4) ii) In order to measure the transcriptional activity of the SREBP promoter gene, HEK293T cells were transfected with pGL4.14-SREBP, and then the luciferase activity of the cell extract was measured. […] Thereafter, the luciferase activity was measured by the method of Example 6. […]

[4] = system: SREBP 2 promoter; test: SREBP 2 promoter-reporter luciferase assay in HEK293T cells; conditions: pGL4.14-SREBP-transfected HEK293T cells, 18 hours, compared to control
Experimental: as §2, §3, §4

CC(C)n1c(/C=C/C(O)CC(O)CC(=O)O)c(-c2ccc(F)cc2)c2ccccc21 (centres unmarked) [Fluvastatin, fluvastatin]
PCSK9 [1]: 1.63 ± 0.02

O=C(O)C[C@H](O)C[C@H](O)/C=C/c1c(C2CC2)nc2ccccc2c1-c1ccc(F)cc1 [Pitavastatin, pitavastatin]
PCSK9 [1]: 1.59 ± 0.02

CC[C@H](C)C(=O)O[C@H]1C[C@H](O)C=C2C=C[C@H](C)[C@H](CC[C@@H](O)C[C@@H](O)CC(=O)O)[C@H]21 [Pravastatin, pravastatin]
PCSK9 [1]: 1.9 ± 0.06

CCC(C)(C)C(=O)O[C@H]1C[C@@H](C)C=C2C=C[C@H](C)[C@H](CC[C@@H]3C[C@@H](O)CC(=O)O3)[C@H]21 [Simvastatin, simvastatin]
PCSK9 [1]: 1.85 ± 0.11

CC(C)c1c(C(=O)Nc2ccccc2)c(-c2ccccc2)c(-c2ccc(F)cc2)n1CC[C@@H](O)C[C@@H](O)CC(=O)O [atorvastatin]
quantity of PCSK9 (immunoblot) [2]: increased

O=c1c(O)c(-c2ccc(O)cc2)oc2cc(O)cc(O)c12 [kaempferol, reference compound]
SREBP 1 luciferase activity [3]: actually increased | SREBP 2 luciferase activity [4]: actually increased

CC(C)c1nc(N(C)S(C)(=O)=O)nc(-c2ccc(F)cc2)c1/C=C/[C@@H](O)C[C@@H](O)CC(=O)O [rosuvastatin]
quantity of PCSK9 (immunoblot) [2]: increased
